Like-named read-outs stand apart in the source and are kept apart here.
Experiments:
[1] = Swelling/induration and histopathology after continuous subcutaneous infusion (Example 1); format: in vivo, Yucatan minipigs; details: for microscopic changes at infused site: pH 4.6
Excerpt: The pharmaceutical compositions were citrate buffered at pH 4.6 where most, but not all, of the LDEE is in the salt form, i.e., there is also some free base.

[2] = Skin symptoms and behavior after subcutaneous LDEE infusion (Example 7); format: in vivo, minipigs
[3] = Plasma LDEE concentrations after 8 hours of subcutaneous infusion (Example 8); design: species or system minipigs; details: minipig, in vivo
Method: In addition to measuring the LD plasma concentrations as described in Example 6, also the plasma LDEE concentrations were measured.

[4] = Infusion site reactions, continuous subcutaneous infusion of 100 mg/mL LDEE pH 3.7 (Example 5); format: in vivo, minipigs; details: for Fraction of sites with a reaction (firmness): pH 3.7, 100 mg/mL (0.44M) LDEE, continuous s.c. 8 h, 280 mg per site, N = 15 infusions
Method: The 5.6 mL volume was divided between two simultaneously infused sites, each site receiving 2.8 mL, i.e., 280 mg LDEE. At each site the flow rate was 0.35 mL/hour, i.e. 35 mg LDEE/hour was infused. The number of sites infused on the first day totaled in the four minipigs 8, and was 7 on the 8th day, because of dislodgement of a cannula from one site. The total number of infused sites was 15.

[5] = Rate of hydrolysis of LD esters in solution; format: physicochemical
Method: At a particular temperature and pH, the LDEs formed of LD and of different alcohols are hydrolyzed prior to their infusion at different rates. […] The rate of hydrolysis of LDE salts also depends on the anion, i.e., on the acid forming the LDE salt. LDE is hydrolyzed more rapidly when carboxylate anions and/or carboxylic acids replace the chloride anion or HCl. The rate of hydrolysis of the salt formed of LDEE and acetic acid can be about 3 times faster at about pH 4.5 at about 23° C. than that of LDEE.HCl, the salt formed of LDEE and HCl. The rate of hydrolysis at a particular pH and temperature can therefore depend on the buffering agent, e.g., citric acid and/or citrate anions, becoming faster when their concentration is elevated. Typically, the concentration of the buffering ions, i.e., the combined concentrations of citrates and citric acid, is between about 5 mM and 100 mM, for example between about 10 mM and 50 mM. The rate of hydrolysis can increase, for example, when the buffering citric acid-citrate concentration is increased.
In aqueous LDE salt pharmaceutical compositions, the hydrolysis rates generally decrease as the pH decreases, and the shelf life of the LDE salt consequently increases, unless the pH is about 1.7±0.5 or less. […] In acidic pharmaceutical compositions the amines of the LDEs are protonated, making the LDEs cations. […] The rates of hydrolysis generally increase with temperature, and may at least about double or about triple for each 10° C. increase, correspondingly decreasing upon cooling.

[6] = Infusion site reactions, subcutaneous infusion of 50 mg/mL LDEE pH 3.7 (Example 6); details: for # of Infusion Site Reactions/# of Infusion Sites: pH 3.7, 50 mg/mL
Method: Over the course of two consecutive days, four 6-12 week old juvenile minipigs weighing about 6-13 kg were each administered 18 subcutaneous infusions of LDEE pharmaceutical compositions at pH 3.7 (LDEE.HCl, pH adjusted with trisodium citrate). […] Intermittent and continuously infused doses of 137.5-140 mg (0.61-0.62 millimoles) were administered over 8 hours, and intermittent doses of 275 mg (1.22 millimoles) were administered over 16 hours (calculated mass of LDEE in its freebase form).
Each infusion site was spaced a minimum of 2 inches (5 cm) apart from any other infusion site. All minipigs received seven doses of oral carbidopa, 25 mg/dose: one dose at 12 hours prior to the infusion on the first day; 3 doses on the first day of infusion; and 3 doses on the second day of infusion.

[7] = minipig A day 1: 90 mg LDEE (100 mg/mL, pH 3.7) s.c. continuous over 8 h, oral Lodosyn
[8] = minipig A day 8: 90 mg LDEE (100 mg/mL, pH 3.7) re-infused at contralateral site over 8 h, pre-infused with 15 units human hyaluronidase
[9] = minipig B day 1: 90 mg LDEE (100 mg/mL, pH 3.7) s.c. continuous over 8 h, oral Lodosyn
[10] = minipig C day 1: 560 mg LDEE (100 mg/mL, pH 3.7) split between 2 sites, s.c. continuous over 8 h, oral Lodosyn
[11] = minipig C day 8: 280 mg LDEE (100 mg/mL, pH 3.7) re-infused at one site, s.c. continuous over 8 h
[12] = minipig D day 1: 560 mg LDEE (100 mg/mL, pH 3.7) split between 2 sites, s.c. continuous over 8 h, oral Lodosyn
[13] = minipig D day 8: 560 mg LDEE (100 mg/mL, pH 3.7) re-infused at the 2 day 1 sites, s.c. continuous over 8 h
[14] = minipig E day 1: 560 mg LDEE (100 mg/mL, pH 3.7) split between 2 sites, s.c. continuous over 8 h, pre-infused with 15 units human hyaluronidase
[15] = minipig F day 1: 560 mg LDEE (100 mg/mL, pH 3.7) split between 2 sites, s.c. continuous over 8 h, pre-infused with 15 units human hyaluronidase
[16] = minipig F day 8: 560 mg LDEE (100 mg/mL, pH 3.7) re-infused at 2 sites over 8 h, pre-infused with 15 units human hyaluronidase

SMILES: CCOC(=O)[C@@H](N)Cc1ccc(O)c(O)c1 [LDEE, levodopa ethyl ester]
- swelling/induration of infused sites ([1]; 1,142 mg LDEE over 16 hours continuous s.c., 326 mg/mL and 220 mg/mL, citrate buffered pH 4.6): Most, but not all, of the infused sites were swollen and/or developed firm indurations
- microscopic changes at infused site ([1]; one month after infusion of 328 mg LDEE/mL (1.45 M)): mild to moderate granulomatous inflammation of the panniculus
- microscopic changes at infused site ([1]; one week after infusion of 220 mg LDEE per mL (0.98 M)): mild thrombus formation in the blood vessels of the panniculus, with minimal hemorrhage and subacute inflammation
- microscopic changes at infused site ([1]; three weeks after infusion of 220 mg LDEE per mL (0.98 M), minipig A): minimal hemorrhage of the dermis and panniculus
- microscopic changes at infused site ([1]; three weeks after infusion of 220 mg LDEE per mL (0.98 M), minipig B): mild granulomatous inflammation
- behavior of the minipigs ([2]; LDEE dose rate raising plasma LD above 10,000 ng/mL, even above 15,000 ng/mL): did not result in a readily observable change in the behavior of the minipigs
- diameter of slightly raised swelling at infused site ([2]; minipig D only, 7 days after first infusion and again after end of 8th day reinfusion, 560 mg LDEE 100 mg/mL pH 3.7): about 1 cm
- Plasma LDEE, 480 minutes after start of infusion [3]: 6.9 ng/mL
- Plasma LD, 480 minutes after start of infusion (Average of the 10 minipig/day infusions of Table 10): 7,870 ng/mL
- Plasma LD, 480 minutes after start of infusion (minipig A day 1: 90 mg LDEE (100 mg/mL, pH 3.7) s.c. continuous over 8 h): 1,051 ng/mL
- 40 minutes Post-Infusion plasma LD [7]: 1,093 ng/mL
- End of Infusion Plasma LD [7]: 1,051 ng/mL
- 40 minutes Post-Infusion plasma LD [8]: 691 ng/mL
- 100 minutes Post-Infusion plasma LD [8]: 342 ng/mL
- 170 minutes Post-Infusion plasma LD [8]: 185 ng/mL
- End of Infusion Plasma LD [8]: 679 ng/mL
- Plasma LD, 480 minutes after start of infusion (minipig A day 8: 90 mg LDEE (100 mg/mL, pH 3.7), contralateral site, 8 h, hyaluronidase pre-infusion): 679 ng/mL
- Plasma LD, 480 minutes after start of infusion (minipig B day 1: 90 mg LDEE (100 mg/mL, pH 3.7) s.c. continuous over 8 h): 1,351 ng/mL
- 40 minutes Post-Infusion plasma LD [9]: 1,010 ng/mL
- 100 minutes Post-Infusion plasma LD [9]: 686 ng/mL
- 170 minutes Post-Infusion plasma LD [9]: 376 ng/mL
- End of Infusion Plasma LD [9]: 1,351 ng/mL
- Plasma LD, 480 minutes after start of infusion (minipig C day 1: 560 mg LDEE (100 mg/mL, pH 3.7) split between 2 sites, s.c. continuous over 8 h): 11,377 ng/mL
- 40 minutes Post-Infusion plasma LD [10]: 11,006 ng/mL
- 100 minutes Post-Infusion plasma LD [10]: 6,010 ng/mL
- 170 minutes Post-Infusion plasma LD [10]: 5,754 ng/mL
- End of Infusion Plasma LD [10]: 11,377 ng/mL
- Plasma LD, 480 minutes after start of infusion (minipig C day 8: 280 mg LDEE (100 mg/mL, pH 3.7) at one site, 8 h): 4739 ng/mL
- 40 minutes Post-Infusion plasma LD [11]: 4551 ng/mL
- 100 minutes Post-Infusion plasma LD [11]: 3357 ng/mL
- 170 minutes Post-Infusion plasma LD [11]: 2306 ng/mL
- End of Infusion Plasma LD [11]: 4739 ng/mL
- Plasma LD, 480 minutes after start of infusion (minipig D day 1: 560 mg LDEE (100 mg/mL, pH 3.7) split between 2 sites, s.c. continuous over 8 h): 15,356 ng/mL
- 40 minutes Post-Infusion plasma LD [12]: 17,055 ng/mL
- 100 minutes Post-Infusion plasma LD [12]: 9,790 ng/mL
- 170 minutes Post-Infusion plasma LD [12]: 6,942 ng/mL
- End of Infusion Plasma LD [12]: 15,356 ng/mL
- Plasma LD, 480 minutes after start of infusion (minipig D day 8: 560 mg LDEE (100 mg/mL, pH 3.7) re-infused at the 2 day 1 sites, 8 h): 8075 ng/mL
- 40 minutes Post-Infusion plasma LD [13]: 8350 ng/mL
- 100 minutes Post-Infusion plasma LD [13]: 5928 ng/mL
- 170 minutes Post-Infusion plasma LD [13]: 4219 ng/mL
- End of Infusion Plasma LD [13]: 8075 ng/mL
- increase in plasma LD concentration 40 minutes after cessation of infusion (minipig D, Day 1 infusion): 1,699 ng/mL
- 40 minutes Post-Infusion plasma LD [14]: 11,918 ng/mL
- 100 minutes Post-Infusion plasma LD [14]: 5,464 ng/mL
- 170 minutes Post-Infusion plasma LD [14]: 7,329 ng/mL
- End of Infusion Plasma LD [14]: 14,212 ng/mL
- Plasma LD, 480 minutes after start of infusion (minipig E day 1: 560 mg LDEE (100 mg/mL, pH 3.7), 2 sites, 8 h, hyaluronidase pre-infusion): 14,212 ng/mL
- 40 minutes Post-Infusion plasma LD [15]: 12,310 ng/mL
- 100 minutes Post-Infusion plasma LD [15]: 3,046 ng/mL
- 170 minutes Post-Infusion plasma LD [15]: 5,903 ng/mL
- End of Infusion Plasma LD [15]: 12,982 ng/mL
- Plasma LD, 480 minutes after start of infusion (minipig F day 1: 560 mg LDEE (100 mg/mL, pH 3.7), 2 sites, 8 h, hyaluronidase pre-infusion): 12,982 ng/mL
- 40 minutes Post-Infusion plasma LD [16]: 8223 ng/mL
- 100 minutes Post-Infusion plasma LD [16]: 6231 ng/mL
- 170 minutes Post-Infusion plasma LD [16]: 3650 ng/mL
- End of Infusion Plasma LD [16]: 8880 ng/mL
- Plasma LD, 480 minutes after start of infusion (minipig F day 8: 560 mg LDEE (100 mg/mL, pH 3.7), 2 sites, 8 h, hyaluronidase pre-infusion): 8880 ng/mL
- diameter of reactions (slightly raised and firm) ([4]; 100 mg/mL (0.44 M) LDEE pH 3.7, continuous s.c. 8 h, 0.35 mL/hour per site): about 1 cm
- fraction of sites with reactions ([4]; 100 mg/mL (0.44 M) LDEE pH 3.7, dose divided between two continuously infused sites): 1/15
- Fraction of sites with a reaction (firmness) ([4]; 0 hrs after end of infusion): 0.067
- Fraction of sites with a reaction (firmness) ([4]; 12 hrs after end of infusion): 0.067
- Fraction of sites with a reaction (firmness) ([4]; 24 hrs after end of infusion): 0.067
- Fraction of sites with a reaction (firmness) ([4]; 3 days after end of infusion): 0.067
- Fraction of sites with a reaction (firmness) ([4]; 7 days after end of infusion): 0.067
- Fraction of sites with a reaction (firmness) ([4]; 14 days after end of infusion): 0
- rate of hydrolysis relative to LDME ([5]; near pH 7, about 37° C.): about four times faster
- time to hydrolysis ([5]; neutral pH): within hours or less
- tolerability of infused volume per site ([6]; 50 mg/mL LDEE pH 3.7, about 0.34 mL per hour per site): well tolerated
- # of Infusion Site Reactions/# of Infusion Sites ([6]; 137.5 mg, 8 hrs, Intermittent s.c., 0 hrs): 0/8
- # of Infusion Site Reactions/# of Infusion Sites ([6]; 137.5 mg, 8 hrs, Intermittent s.c., 12 hrs): 0/8
- # of Infusion Site Reactions/# of Infusion Sites ([6]; 137.5 mg, 8 hrs, Intermittent s.c., 24 hrs): 0/8
- # of Infusion Site Reactions/# of Infusion Sites ([6]; 137.5 mg, 8 hrs, Intermittent s.c., 3 days): 3/8
- # of Infusion Site Reactions/# of Infusion Sites ([6]; 140 mg, 8 hrs, Continuous s.c., 0 hrs): 0/4
- # of Infusion Site Reactions/# of Infusion Sites ([6]; 140 mg, 8 hrs, Continuous s.c., 12 hrs): 0/4
- # of Infusion Site Reactions/# of Infusion Sites ([6]; 140 mg, 8 hrs, Continuous s.c., 24 hrs): 0/4
- # of Infusion Site Reactions/# of Infusion Sites ([6]; 140 mg, 8 hrs, Continuous s.c., 3 days): 0/4
- # of Infusion Site Reactions/# of Infusion Sites ([6]; 275 mg, 16 hrs, Intermittent s.c., 0 hrs): 0/6
- # of Infusion Site Reactions/# of Infusion Sites ([6]; 275 mg, 16 hrs, Intermittent s.c., 12 hrs): 0/6
- # of Infusion Site Reactions/# of Infusion Sites ([6]; 275 mg, 16 hrs, Intermittent s.c., 24 hrs): 1/6
- # of Infusion Site Reactions/# of Infusion Sites ([6]; 275 mg, 16 hrs, Intermittent s.c., 3 days): 1/6
